Key:
[1] = system: MiaPaCa2 pancreatic cancer cells; experiment: Malignant transformation (Soft Agar) colony formation; assay type: cell-based, human; settings: MiaPaCa2, 50 μM, vs vehicle
Experimental: FIG. 20 is a graph showing the effect of tocotrienols on pancreatic cancer malignant transformation (Soft Agar). […] Bars, SE (n=3). *p<0.001 vs. vehicle. **p<0.02 vs. vehicle. ***p<0.05 vs. vehicle. T=tocopherol, T3=tocotrienol.
MiaPaCa2 cells (3×10^3) were cultured as described in the Examples above, in 96-well plates and treated with 50 μM of different tocopherol or tocotrienol.

[2] = system: MiaPaCa2 pancreatic cancer cells; experiment: Cell death by trypan blue assay, 72 hours; assay type: cell-based, human; settings: MiaPaCa2, 50 μM
Experimental: (§1) FIGS. 38A and B are graphs showing the effect of tocotrienols on pancreatic cancer survival (Trypan Blue and Cell death ELISA). […] T3=tocotrienol, T=tocopherol, vit E=vitamin E succinate, gem=gemcitabine, 5-FU=fluorouracil.
(§2) MIA PaCa2 cells (3×10^3) were plated in 96 well plates and treated the following day with different compositions of tocoperhol, tocotrienol, gemcitabine, or fluorouracil. The cells were harvested 72 hours later and tested using trypan blue assay and cell death ELISA.

[3] = system: AsPc1 pancreatic cancer cells; experiment: Effect of tocotrienols on pancreatic cancer proliferation (MTT), 72 hours; assay type: cell-based, human; settings: AsPc1, 40 to 100 μM, vs vehicle
Description: (§3) FIGS. 11A and B are graphs showing the effect of tocotrienols on pancreatic cancer proliferation (MTT). […] Points, means; bars, SE (n=3).

[4] = system: MiaPaCa2 pancreatic cancer cells; experiment: as above; assay type: cell-based, human; settings: MiaPaCa2, 40 to 100 μM, vs vehicle
Description: as §3

[5] = system: MiaPaCa2 pancreatic cancer cells; experiment: Apoptosis by cell death ELISA, 72 hours; assay type: cell-based, human; settings: MiaPaCa2, 50 μM
Experimental: as §1, §2

[6] = system: SW1990 pancreatic cancer cells; experiment: MTS assay of SW1990 cultures, single 50 μM dose; assay type: cell-based, human; settings: SW1990, 50 μM
Experimental: SW1990 pancreatic cancer cells […] were cultured in complete DMEM media containing 10% fetal bovine serum (FBS) and 1% penicillin-streptomycin, and 1% L-glutamine. BxPc-3 pancreatic cancer cells were cultured in complete RPMI media containing 10% fetal bovine serum (FBS), and 1% penicillin-streptomycin, 1% HEPES buffer, 1% sodium pyruvate and 1% L-glutamine. HPDE6-C7 cells were cultured in serum-free keratinocyte SFM media. All cells were maintained at 37° C. in a humidified incubator with 5% CO2. The cells were treated with a single 50 μM dose of vehicle (ethanol extracted olive oil), T3 alpha (alpha tocotrienol), T3 beta (beta tocotrienol), T3 gamma (gamma tocotrienol), T3 delta (delta tocotrienol), T alpha (alpha tocopherol), T beta (beta tocopherol), TS (tocopherol succinate), GG (geranylgeraniol), SA (succinic acid). A control culture (i.e., only vehicle with no treatment) was grown alongside the treatments for comparison. Cell viability was measured using MTS assay at preselect times of 24, 48, or 72 hours after treatment.

[7] = system: human pancreatic ductal epithelial cells transformed with oncogenic K-ras (HPDE-K-ras); experiment: Proliferation (MTT) of K-ras transformed ductal epithelial cells; assay type: cell-based; settings: 72 hours
Experimental: FIGS. 36A and B are graphs showing the effect of tocotrienols on Human Pancreatic Ductal Epithelial Kras Transformed cells (MTT). (A) Tocotrienols (10-100 μM) had no effect on the proliferation of normal immortalized human pancreatic ductal epithelial cells at 72 hours. […] Points, means; bars, SE (n=3). *p<0.001 vs. vehicle. # p<0.02 vs. vehicle
The Ras effector pathways Raf-MEK-ERK and PI3 kinase-AKT are important for cell proliferation and survival, respectively. Pancreatic cancer cell lines (MIA PaCa2, SW1990, BXPC3) and HPDE 6C7 cells were treated with 8-tocotrienol (20 μM) and cell lysates were collected and prepared at progressive time intervals as described above. Proteins from lysates were run by SDS PAGE and immunoblotted with the following antibodies: Ras, p-cRaf (ser 338), p-MEK1/2, MEK1/2, pERK 44/42, ERK 44/42 (Cell Signaling) and c-Raf (BD Transduction Laboratories). […] The MIA PaCa2 and SW1990 cells were then tested for AKT inhibition. The cells were treated with δ-tocotrienol (20 μM) for 24 and 48 hours and cell lysates were run by SDS-PAGE and immunoblotted for p-AKT and AKT (Cell Signaling). […] Taken together, the inhibition of downstream effectors of oncogenic Ras signaling by δ-tocotrienol without an effect on Ras protein levels may indicate a negative regulatory role of 8-tocotrienol on the function of oncogenic Ras. The pancreatic ductal epithelial cell proliferative inhibition by δ-tocotrienol was tested to see if it occurs through blocking aberrant signal transduction cascades. Immortalized human pancreatic ductal epithelial cells (HPDE) and human pancreatic ductal epithelial cells that were transformed by stable transfection of a mutated K-ras oncogene (HPDE-K-ras) were used to test the. effect of tocotrienols on the proliferation of HPDE and HPDE-K-ras.

Compound | rel amnt (relative value set to the control) ([6]; 24 hours) | MTS assay result, run 1 ([6]; 24 hours) | MTS assay result, run 2 ([6]; 24 hours) | MTS assay result, run 3 ([6]; 24 hours) | MTS assay result, run 4 ([6]; 24 hours) | MTS assay result, run 5 ([6]; 24 hours) | MTS assay result, run 6 ([6]; 24 hours) | MTS assay result, run 7 ([6]; 24 hours) | MTS assay result, run 8 ([6]; 24 hours) | MTS assay result, run 9 ([6]; 24 hours) | rel amnt (relative value set to the control) ([6]; 48 hours) | MTS assay result, run 1 ([6]; 48 hours) | MTS assay result, run 2 ([6]; 48 hours) | MTS assay result, run 3 ([6]; 48 hours) | MTS assay result, run 4 ([6]; 48 hours) | MTS assay result, run 5 ([6]; 48 hours) | MTS assay result, run 6 ([6]; 48 hours) | MTS assay result, run 7 ([6]; 48 hours) | MTS assay result, run 8 ([6]; 48 hours) | MTS assay result, run 9 ([6]; 48 hours) | also measured
Cc1c(C)c2c(c(C)c1O)CC[C@@](C)(CCC[C@H](C)CCC[C@H](C)CCCC(C)C)O2 [T alpha, alpha tocopherol] | 122 | 0.188 | 0.183 | 0.189 | 0.166 | 0.183 | 0.181 | 0.186 | 0.16 | 0.180 | 107 | 0.172 | 0.17 | 0.16 | 0.154 | 0.154 | 0.167 | 0.18 | 0.146 | 0.163 | malignant transformation (Soft Agar) [1]: no effect; cell death (Trypan Blue) [2]: no effect; proliferation (MTT) [3]: no effect; proliferation (MTT) [4]: no effect; apoptosis (Cell death ELISA) [5]: no effect; rel amnt (relative value set to the control) ([6]; 72 hours): 103; MTS assay result, run 1 ([6]; 72 hours): 0.523; MTS assay result, run 2 ([6]; 72 hours): 0.478; MTS assay result, run 3 ([6]; 72 hours): 0.46; MTS assay result, run 4 ([6]; 72 hours): 0.453; MTS assay result, run 5 ([6]; 72 hours): 0.443; MTS assay result, run 6 ([6]; 72 hours): 0.456; MTS assay result, run 7 ([6]; 72 hours): 0.38; MTS assay result, run 8 ([6]; 72 hours): 0.451; MTS assay result, run 9 ([6]; 72 hours): 0.456
CC(C)=CCC/C(C)=C/CC/C(C)=C/CC[C@]1(C)CCc2cc(O)c(C)c(C)c2O1 [T3 gamma, gamma tocotrienol] | 107 | 0.169 | 0.161 | 0.163 | 0.143 | 0.15 | 0.158 | 0.159 | 0.151 | 0.157 | 89 | 0.114 | 0.125 | 0.13 | 0.123 | 0.137 | 0.137 | 0.16 | 0.16 | 0.135 | proliferation (MTT) [7]: significantly inhibited; rel amnt (relative value set to the control) ([6]; 72 hours): 177; MTS assay result, run 1 ([6]; 72 hours): 0.776; MTS assay result, run 2 ([6]; 72 hours): 0.744; MTS assay result, run 3 ([6]; 72 hours): 0.88; MTS assay result, run 4 ([6]; 72 hours): 0.734; MTS assay result, run 5 ([6]; 72 hours): 0.812; MTS assay result, run 6 ([6]; 72 hours): 0.817; MTS assay result, run 7 ([6]; 72 hours): 0.77; MTS assay result, run 8 ([6]; 72 hours): 0.759; MTS assay result, run 9 ([6]; 72 hours): 0.786
CC(C)=CCC/C(C)=C/CC/C(C)=C/CC[C@]1(C)CCc2c(C)c(O)cc(C)c2O1 [T3 beta, beta tocotrienol] | 99 | 0.164 | 0.168 | 0.167 | 0.123 | 0.138 | 0.143 | 0.126 | 0.134 | 0.145 | 68 | 0.108 | 0.093 | 0.09 | 0.104 | 0.109 | 0.117 | 0.1 | 0.102 | 0.104 | proliferation (MTT) [7]: significantly inhibited; rel amnt (relative value set to the control) ([6]; 72 hours): 69; MTS assay result, run 1 ([6]; 72 hours): 0.349; MTS assay result, run 2 ([6]; 72 hours): 0.316; MTS assay result, run 3 ([6]; 72 hours): 0.33; MTS assay result, run 4 ([6]; 72 hours): 0.298; MTS assay result, run 5 ([6]; 72 hours): 0.323; MTS assay result, run 6 ([6]; 72 hours): 0.287; MTS assay result, run 7 ([6]; 72 hours): 0.28; MTS assay result, run 8 ([6]; 72 hours): 0.275; MTS assay result, run 9 ([6]; 72 hours): 0.307

Reference: patent US8846653B2, “Delta-tocotrienol treatment and prevention of pancreatic cancer” (University of South Florida, priority 2006, dated 2014)
